Test results from US20240287082A1, “NEW BENZODIAZEPINE DERIVATIVES AS GABA A GAMMA1 PAM” (Hoffmann-La Roche Inc., priority 2021, published 2024).
pKi: −log10 of the molar value. Where two headings read alike, the source gives them in different places.

Key:
[1] = biological target: human GABAA α1β3γ2 receptor (Homo sapiens (Human), UniProt P14867+P18507); test: Radioligand binding assay, competition for [3H]Flumazenil, γ2-containing GABAA subtype α1β3γ2
Protocol: The affinity of compounds at GABAA γ2 subunit-containing receptors was measured by competition for [^3H]Flumazenil (81.1 Ci/mmol; Roche) binding to HEK293F cells expressing human (transiently transfected) receptors of composition α1β3γ2.
Harvested pellets from HEK293F cells expressing the different GABAA γ2 receptor subtypes were resuspended in Mannitol Buffer pH 7.2-7.4 and processed as described above for the cells expressing the GABAA γ1 subunit-containing receptors.
Assays were incubated to equilibrium for 1 hour at 4° C. and harvested onto GF/C uni-filters (Packard) by filtration using a Packard harvester and washing with ice-cold wash buffer (50 mM Tris; pH 7.5). After anhydrousing, filter-retained radioactivity was detected by liquid scintillation counting. Ki values were calculated using Excel-Fit (Microsoft) and are the means of two determinations.

[2] = biological target: human GABAA α2β2γ1 receptor (Homo sapiens (Human), UniProt P47869+Q8N1C3); test: Radioligand binding assay, competition for [3H]RO7239181, γ1-containing GABAA subtype α2β2γ1; details: for γ2/γ1 Selectivity Ratio: Ki α1β3γ2 (nM)/Ki α2β2γ1 (nM); for LogSel: Log[Ki α1β3γ2 (nM)/Ki α2β2γ1 (nM)]
Protocol: (§1) The affinity of compounds at GABAA γ1 subunit-containing receptors was measured by competition for [^3H]RO7239181 (67.3 Ci/mmol; Roche) binding to membranes from HEK293F cells (ThermoFisher R^79007) expressing human (transiently transfected) receptors of composition α5β2γ1, α2β2γ1, α1β2γ1.
(§2) Harvested pellets from HEK293F cells expressing the different GABAA receptor subtypes were resuspended in Mannitol Buffer pH 7.2-7.4 (Mannitol 0.29M, Triethylamine 10 mM, Acetic acid 10 mM, EDTA 1 mM plus protease inhibitors (20 tablets Complete, Roche Diagnostics Cat. No. 05 056 489 001 per liter)), washed two times and then resuspended at 1:10 to 1:15 dilution in the same buffer. Cell disruption was performed by stirring the suspension in a Parr vessel #4637 at 435 psi for 15 minutes, and then the suspensions were centrifuged at 1000×g for 15 minutes at 4° C. (Beckman Avanti J-HC: rotor JS-4.2). The supernatant (S1) was transferred in a 21 Schott flask and the pellet (P1) was resuspended with Mannitol Buffer up to 175 ml. The resuspended pellet was transferred into a 250 ml Corning centrifugal beaker and centrifuged at 1500×g for 10 minutes at 4° C. (Beckman Avanti J-HC: rotor JS-4.2). The supernatant (S1) was then transferred in the 21 Schott flask and the pellet was discarded. The supernatants (S1) were centrifuged in 500 ml Beckman polypropylene centrifugal beaker at 15 000×g for 30 minutes at 4° C. (Beckman Avanti J-20 XP: rotor JLA-10.500). The pellet (P2) was resuspended with Mannitol Buffer 1:1 and frozen at −80° C. The supernatant (S2) was centrifuged in 100 ml Beckman polypropylene centrifugal tubes at 48000×g for 50 minutes at 4° C. (Beckman Avanti J-20 XP: rotor JA-18). The supernatant (S3) was discarded and the pellet (P3) was resuspended with 1:1 Mannitol Buffer. The P2 and P3 protein concentration was determined with the BIORAD Standard assay method with bovine serum albumin as standard and measured on the NANO-Drop 1000. The membrane suspension was aliquots (500 μl per tube) and stored at −80° C. until required.
(§3) Membrane homogenates were resuspended and polytronised (Polytron PT1200E Kinematica AG) in Potassium Phosphate 10 mM, KCl 100 mM binding buffer at pH 7.4 to a final assay concentration determined with a previous experiment.
(§4) Assays were incubated to equilibrium for 1 hour at 4° C. and then, membranes were filtered onto unifilter (96-well white microplate with bonded GF/C filters preincubated 20-50 minutes in 0.3% Polyethylenimine) with a Filtermate 196 harvester (Packard BioScience) and washed 4 times with cold Potassium Phosphate 10 mM pH 7.4, KCl 100 mM binding buffer. After anhydrousing, filter-retained radioactivity was detected by liquid scintillation counting. Ki values were calculated using Excel-Fit (Microsoft) and are the means of two determinations.

[3] = biological target: human GABAA α1β2γ1 receptor (Homo sapiens (Human), UniProt P14867+Q8N1C3); test: Radioligand binding assay, competition for [3H]RO7239181, γ1-containing GABAA subtype α1β2γ1; details: membranes of HEK293F cells, [3H]RO7239181 20-30 nM, mean of two determinations
Protocol: as §1, §2, §3, §4

[4] = HEK293F cell membranes, [3H]Flumazenil 1 nM, mean of two determinations, read-out: Ki h-GABAA α1β3γ2
[5] = Table 2, membranes of HEK293F cells, [3H]RO7239181, read-out: Ki h-GABAA α2β2γ1
[6] = membranes of HEK293F cells, [3H]RO7239181 20-30 nM, mean of two determinations, read-out: Ki h-GABAA α2β2γ1
[7] = read-out: Ki h-GABAA α2β2γ1, Table 2, membranes of HEK293F cells, [3H]RO7239181

SMILES | pKi [1, 4] | γ2/γ1 Selectivity Ratio [2] | LogSel [2] | pKi [2, 5] | pKi [2, 6] | pKi [3] | pKi [1] | pKi [2] | pKi [2, 7]
CCOCCc1cn2c(nc1=O)CN=C(c1c(F)cccc1F)c1c-2ccc(Cl)c1Cl [Example 24, 8,9-dichloro-7-(2,6-difluorophenyl)-2-(2-ethoxyethyl)-5H-pyrimido[1,2-a][1,4]benzodiazepin-3-one] | 5.74 | 60.1 | 1.78 | 7.52 | 7.52 |  |  |  | 
CNC(=O)c1cn2c(nc1=O)[C@H](C)N=C(c1c(F)cccc1F)c1c-2ccc(C(F)(F)F)c1Cl [Example 27, (5S)-8-chloro-7-(2,6-difluorophenyl)-N,5-dimethyl-3-oxo-9-(trifluoromethyl)-5H-pyrimido[1,2-a][1,4]benzodiazepine-2-carboxamide] | 5.05 | 292.9 | 2.47 | 7.51 | 7.51 | 7.17 |  |  | 
CCO/C=C/c1cn2c(nc1=O)CN=C(c1c(F)cccc1F)c1c-2ccc(C(F)(F)F)c1Cl [Example 25, 8-chloro-7-(2,6-difluorophenyl)-2-[(E)-2-ethoxyvinyl]-9-(trifluoromethyl)-5H-pyrimido[1,2-a][1,4]benzodiazepin-3-one] | 4.83 | 306.4 | 2.49 | 7.32 | 7.32 |  |  |  | 
CCO/C=C/c1cn2c(nc1=O)[C@H](C)N=C(c1c(F)cccc1F)c1c-2ccc(Cl)c1Cl [Example 19, (5S)-8,9-dichloro-7-(2,6-difluorophenyl)-2-[(E)-2-ethoxyvinyl]-5-methyl-5H-pyrimido[1,2-a][1,4]benzodiazepin-3-one] | 5.93 | 48.4 | 1.68 | 7.62 | 7.62 |  |  |  | 
CCOCCc1cn2c(nc1=O)[C@H](C)N=C(c1c(F)cccc1F)c1c-2ccc(C(F)(F)F)c1Cl [Example 20, (5S)-8-chloro-7-(2,6-difluorophenyl)-2-(2-ethoxyethyl)-5-methyl-9-(trifluoromethyl)-5H-pyrimido[1,2-a][1,4]benzodiazepin-3-one] | 5.05 | 88.1 | 1.95 | 7.00 | 7.00 |  |  |  | 
C[C@@H]1N=C(c2c(F)cccc2F)c2c(ccc(Br)c2Cl)-n2ccc(=O)nc21 [Example 13, (5S)-9-bromo-8-chloro-7-(2,6-difluorophenyl)-5-methyl-5H-pyrimido[1,2-a][1,4]benzodiazepin-3-one] |  | 53.3 | 1.73 |  |  | 7.75 | 6.22 | 7.94 | 7.94
CCc1cn2c(nc1=O)[C@H](C)N=C(c1c(F)cccc1F)c1c-2ccc(C(F)(F)F)c1Cl [Example 11, (5S)-8-chloro-7-(2,6-difluorophenyl)-2-ethyl-5-methyl-9-(trifluoromethyl)-5H-pyrimido[1,2-a][1,4]benzodiazepin-3-one] |  | 151.9 | 2.18 |  |  | 6.78 | 5.22 | 7.40 | 7.40
O=c1ccn2c(n1)CN=C(c1c(F)cccc1F)c1c-2ccc(Cl)c1Cl [Example 2, 8,9-dichloro-7-(2,6-difluorophenyl)-5H-pyrimido[1,2-a][1,4]benzodiazepin-3-one] |  | 47.7 | 1.68 |  |  | 8.07 | 6.34 | 8.01 | 8.01
CCOCCc1cn2c(nc1=O)CN=C(c1c(F)cccc1F)c1c-2ccc(C(F)(F)F)c1Cl [Example 26, 8-chloro-7-(2,6-difluorophenyl)-2-(2-ethoxyethyl)-9-(trifluoromethyl)-5H-pyrimido[1,2-a][1,4]benzodiazepin-3-one] | < 4.52 | 400.1 | 2.60 | 7.12 | 7.12 |  |  |  | 
O=c1ccn2c(n1)CN=C(c1ncccc1F)c1c-2ccc(Cl)c1Cl [Example 3, 8,9-dichloro-7-(3-fluoro-2-pyridyl)-5H-pyrimido[1,2-a][1,4]benzodiazepin-3-one] |  | 19.6 | 1.29 |  |  | 6.74 | 5.66 | 6.95 | 6.95
Cc1cn2c(nc1=O)[C@H](C)N=C(c1c(F)cccc1F)c1c-2ccc(C(F)(F)F)c1Cl [Example 9, (5S)-8-chloro-7-(2,6-difluorophenyl)-2,5-dimethyl-9-(trifluoromethyl)-5H-pyrimido[1,2-a][1,4]benzodiazepin-3-one] |  | 209.4 | 2.32 |  |  | 7.01 | 5.23 | 7.55 | 7.55
O=c1ccn2c(n1)CN=C(c1ccccc1F)c1c-2ccc(Cl)c1Cl [Example 1, 8,9-dichloro-7-(2-fluorophenyl)-5H-pyrimido[1,2-a][1,4]benzodiazepin-3-one] |  | 12.4 | 1.09 |  |  | 7.20 | 6.14 | 7.24 | 7.24
CCO/C=C/c1cn2c(nc1=O)[C@H](C)N=C(c1c(F)cccc1F)c1c-2ccc(C(F)(F)F)c1Cl [Example 18, (5S)-8-chloro-7-(2,6-difluorophenyl)-2-[(E)-2-ethoxyvinyl]-5-methyl-9-(trifluoromethyl)-5H-pyrimido[1,2-a][1,4]benzodiazepin-3-one] | 5.20 | 104.6 | 2.02 | 7.22 | 7.22 |  |  |  | 
CCO/C=C/c1cn2c(nc1=O)CN=C(c1c(F)cccc1F)c1c-2ccc(Cl)c1Cl [Example 22, 8,9-dichloro-7-(2,6-difluorophenyl)-2-[(E)-2-ethoxyvinyl]-5H-pyrimido[1,2-a][1,4]benzodiazepin-3-one] | 5.95 | 73.8 | 1.87 | 7.82 | 7.82 |  |  |  | 
CCOCCc1cn2c(nc1=O)[C@H](C)N=C(c1c(F)cccc1F)c1c-2ccc(Cl)c1Cl [Example 21, (5S)-8,9-dichloro-7-(2,6-difluorophenyl)-2-(2-ethoxyethyl)-5-methyl-5H-pyrimido[1,2-a][1,4]benzodiazepin-3-one] | 5.84 | 61.6 | 1.79 | 7.63 | 7.63 |  |  |  | 
C[C@@H]1N=C(c2c(F)cccc2F)c2c(ccc(C(F)(F)F)c2Cl)-n2cc(C(=O)NC3CC3)c(=O)nc21 [Example 28, (5S)-8-chloro-N-cyclopropyl-7-(2,6-difluorophenyl)-5-methyl-3-oxo-9-(trifluoromethyl)-5H-pyrimido[1,2-a][1,4]benzodiazepine-2-carboxamide] | 4.95 | 338.4 | 2.53 | 7.48 | 7.48 |  |  |  | 
